Experiments:
[1] = system: cochlear hair cells and supporting cells of Cre reporter transgenic mice; assay: In vivo protein delivery of Cre recombinase into mouse neonatal cochleas
Procedure: FIGS. 6A-6C. In vivo protein delivery of Cre recombinase into mouse neonatal cochleas. 0.4 μL of 50 μM+36 GFP-Cre or aurein 1.2-+36 GFP-Cre were injected into the scala media. (FIG. 6A) Five days after injection, cochlea were harvested. Inner hair cells (IHC), outer hair cells (OHC) and supporting cells in the sensory epithelium (SE) were imaged for the presence of tdTomato, which is only expressed following Cre-mediated recombination. Hair cells were labeled with antibodies against the hair-cell marker Myo7a. (FIG. 6B) To evaluate cytotoxicity, the number of outer hair cells and inner hair cells were measured by counting DAPI-stained cells. (FIG. 6C) The percentage of tdTomato positive cells, reflecting successful delivery of functional Cre recombinase, was determined by fluorescence imaging.
To evaluate the ability of aurein 1.2 to increase the efficacy of cationic protein delivery in vivo, proteins were delivered to the inner ear of Cre reporter transgenic mice that express tdTomato upon Cre-mediated recombination. This animal model was chosen due to its confined injection volume, the presence of well-characterized cell types, and the existence of genetic deafness models that would facilitate future studies of protein delivery to treat hearing loss.
Anesthetized postnatal day 2 (P2) mice were injected with 0.4 μL of 50 μM+36 GFP-Cre or aurein 1.2-+36 GFP-Cre solutions in the scala media to access the cochlear cells. Five days after injection, the cochleas were harvested for immunolabeling of inner ear cell markers and imaging for tdTomato florescence (FIG. 6A). Both the hair cells (Myo7a+) and supporting cells (Myo7a−) were evaluated for td Tomato signal. The total number of hair cells and supporting cells (by DAPI labeling) in the sensory epithelium (SE) was used to determine the relative toxicity of aurein 1.2-+36 GFP-Cre to the baseline treatment of +36 GFP-Cre ([…]).
P1-2 Gt(ROSA)26Sor^tm14(CAG-tdTomato)Hze mice were used for aurein 1.2-+36-GFP-Cre and +36-GFP-Cre injection. The Rosa26-tdTomato mice were from the Jackson Laboratory. Animals were used under protocols approved by the Massachusetts Eye & Ear Infirmary IACUC committee. Mice were anesthetized by hypothermia on ice. Cochleostomies were performed by making an incision behind the ear to expose the cochlea. Glass micropipettes held by a micromanipulator were used to deliver the complex into the scala media, which allows access to inner ear hair cells. The total delivery volume for every injection was 0.4 μL per cochlea and the release was controlled by a micromanipulator at the speed of 69 nL/min.
5 days after injection, the mice were sacrificed and cochlea were harvested by standard protocols. See, e.g., Sage et al. Science 2005, 307, 1114. For immunohistochemistry, antibodies against hair-cell markers (Myo7a) and supporting cells (Sox2) were used following a previously described protocol. To quantify the number of tdTomato positive cells after aurein 1.2-+36-GFP-Cre and +36-GFP-Cre, we counted the total number of inner and outer hair cells in a region spanning 100 μm in the apex, middle, and base turn of the cochlea.

BSR.LNL.tdTomato cells [2] = assay: Delivery efficiency of aurein 1.2 in trans with +36 GFP-Cre (Cre recombination, flow cytometry); type: cell-based, hamster; conditions: 125-500 nM +36 GFP-Cre mixed with aurein 1.2 (1-100 μM) or aurein 1.2-+36 GFP (125-500 nM)
Procedure: Determining the delivery efficiency of aurein 1.2 in trans with +36 GFP-Cre. 125 nM, 250 nM, or 500 nM+36 GFP-Cre was mixed with either aurein 1.2-+36 GFP (125 nM, 250 nM, 500 nM) or with aurein 1.2 (1 μM, 10 μM, 100 μM), then assayed for Cre-mediated recombination as measured by tdTomato signal during flow cytometry. […] The expressed fusion aurein 1.2-+36 GFP-Cre protein at 125 nM, 250 nM, or 500 nM was used as the positive control.
To test this possibility, we assayed functional Cre recombinase delivery of +36 GFP-Cre mixed with aurein 1.2, or mixed with aurein 1.2-+36 GFP fusion protein lacking Cre at various concentrations (FIG. 9).

BSR.LNL.tdTomato cells [3] = assay: Primary screen for cytosolic delivery of Cre recombinase (tdTomato, fluorescence image analysis); type: cell-based, hamster; conditions: for level of recombination in primary screen: 250 nM peptide-(+36 GFP)-Cre conjugate
Procedure: FIG. 2. Primary screen for cytosolic delivery of Cre recombinase in BSR.LNL.tdTomato cells. Initial screen of 20 peptide-(+36 GFP)-Cre conjugated proteins. Cytosolic Cre delivery results in recombination and tdTomato expression. The percentage of tdTomato positive cells was determined by fluorescence image analysis. […] Cells were treated with 250 nM protein for 4 hours in serum-free DMEM. Cells were washed and supplanted with full DMEM and incubated for 48 hours. Error bars represent the standard deviation of three independent biological replicates.
The ability of each peptide-(+36 GFP)-Cre recombinase fusion when added to culture media to effect recombination was assayed in BSR.LNL.tdTomato cells, a hamster kidney cell line derived from BHK-21 (FIG. 8). Because Cre recombinase must enter the cell, escape endosomes, enter the nucleus, and catalyze recombination to generate tdTomato fluorescence, this assay reflects the availability of active, non-endosomal recombinase enzyme that reaches the nucleus. […] See, e.g., Dijkstra at al. Biochimica et Biophysica Acta (BBA)-Molecular Cell Research 1984, 804, 58.
The reporter BSR.LNL.tdTomato cells were incubated with 250 nM of each peptide-(+36 GFP)-Cre protein in serum-free media.
BSR.LNL.tdTomato cells were plated at 10,000 cells per well in black 384-well plates (Aurora Biotechnologies). Cells were treated with Cre fusion proteins diluted in serum-free DMEM 24 hours after plating and incubated for 4 hours at 37° C. Following incubation, the cells were washed three times with PBS+20 U/mL heparin. The cells were incubated a further 48 h in serum-containing media. Cells were fixed in 3% paraformaldehyde and stained with Hoescht 33342 nuclear dye. Images were acquired on an ImageXpress Micro automated microscope (Molecular Devices) using a 4× objective (binning 2, gain 2), with laser- and image-based focusing (offset −130 μm, range ±50 μm, step 25 μm). Images were exposed for 10 ms in the DAPI channel (Hoechst) and 500 ms in the dsRed channel (tdTomato). Image analysis was performed using the cell-scoring module of MetaXpress software (Molecular Devices). All nuclei were detected with a minimum width of 1 pixel, maximum width of 3 pixels, and an intensity of 200 gray levels above background. Positive cells were evaluated for uniform signal in the dsRed channel (minimum width of 5 pixels, maximum width of 30 pixels, intensity >200 gray levels above background, 10 μm minimum stained area). In total, nine images were captured and analyzed per well, and 16 wells were treated with the same fusion protein. The primary screen was completed in biological triplicate.

BSR.LNL.tdTomato cells [4] = assay: Toxicity of aurein 1.2 variants fused to +36 GFP-Cre; type: cell-based, hamster; conditions: variant fused to +36 GFP-Cre, 250 nM
Procedure: (§1) FIGS. 4A-4B. Activity and cytotoxicity of aurein 1.2 variants fused to +36 GFP-Cre. (FIG. 4A) The percentage of tdTomato positive cells was determined by flow cytometry. (FIG. 4B) Toxicity as determined by CellTiterGlo (Promega) assay. […] Cells were treated with 250 nM protein for 4 hours in serum-free DMEM. Cells were washed and supplanted with full DMEM and incubated for 48 hours.
To identify the residues involved in enhancing non-endosomal protein delivery, an alanine scan of the 13 amino acid positions of aurein 1.2 was performed by cloning, expressing, and purifying each alanine mutant of aurein 1.2-+36 GFP-Cre. The resulting fusion proteins were assayed in BSR.LNL.tdTomato reporter cells as described above (Table 2). Seven positions were moderately to highly intolerant of alanine substitution. Six positions retained >70% of the activity of unmutated aurein 1.2-+36 GFP-Cre (FIG. 4A). […]
Uptake and delivery assays for Cre fusion proteins were performed as previously described. […] Toxicity for aurein 1.2 and citropin 1.3 validation assays was determined using CellTiterGlo assay (Promega) in 96-well plates following manufacturer protocol. Toxicity for alanine scan mutational analysis was determined with LIVE/DEAD fixable far-red dead cell stain (Life Technologies) with 635 nm laser and 670/30 nm filter.

BSR.LNL.tdTomato cells [5] = assay: Cre delivery assay of expressed fusion proteins (tdTomato, flow cytometry); type: cell-based, hamster; conditions: for overall recombination efficiency versus aurein 1.2: variant fused to +36 GFP-Cre, 250 nM
Procedure: FIGS. 3A-3B. Efficacy and toxicity of recombinant expression fusions of aurein 1.2 (“E”) and citropin 1.3 (“U”). […] The percentage of tdTomato positive cells was determined by flow cytometry. Protein fusions were delivered at 125 nM, 250 nM, 500 nM, and 1 μM. (FIG. 3B) Toxicity of aurein 1.2 and citropin 1.3 as determined by CellTiterGlo (Promega) assay. Protein fusions were delivered at 125 nM, 250 nM, 500 nM, and 1 μM. […] Cells were treated with 250 nM protein for 4 hours in serum-free media. Cells were washed and supplanted with full DMEM and incubated for 48 hours. Error bars represent the standard deviation of three independent biological replicates.
as §1
Both aurein 1.2-+36 GFP-Cre and citropin 1.3-+36 GFP-Cre were cloned, expressed, and purified as fusion proteins.
To identify the residues involved in enhancing non-endosomal protein delivery, an alanine scan of the 13 amino acid positions of aurein 1.2 was performed by cloning, expressing, and purifying each alanine mutant of aurein 1.2-+36 GFP-Cre. The resulting fusion proteins were assayed in BSR.LNL.tdTomato reporter cells as described above (Table 2). […] In total, 19 mutants of aurein 1.2 were generated and tested using the Cre recombination assay.
(§2) Uptake and delivery assays for Cre fusion proteins were performed as previously described. Briefly, proteins were diluted in serum-free DMEM and incubated on the cells in 48-well plates for 4 hours at 37° C. Following incubation, the cells were washed three times with PBS+20 U/mL heparin. The cells were incubated a further 48 hours in serum-containing media prior to trypsinization and analysis by flow cytometry. All flow cytometry were carried out on a BD Fortessa flow cytometer (Becton-Dickinson) using 530/30 nm and 610/20 nm filter sets. Toxicity for aurein 1.2 and citropin 1.3 validation assays was determined using CellTiterGlo assay (Promega) in 96-well plates following manufacturer protocol. Toxicity for alanine scan mutational analysis was determined with LIVE/DEAD fixable far-red dead cell stain (Life Technologies) with 635 nm laser and 670/30 nm filter.

BSR.LNL.tdTomato cells [6] = assay: ATP-dependent cell viability assay (CellTiterGlo) 48 h after treatment; type: cell-based, hamster; conditions: for viable cells: 1 μM treatment
Procedure: FIGS. 3A-3B. Efficacy and toxicity of recombinant expression fusions of aurein 1.2 (“E”) and citropin 1.3 (“U”). (FIG. 3A) Cytosolic Cre delivery results in recombination and tdTomato expression. The percentage of tdTomato positive cells was determined by flow cytometry. Protein fusions were delivered at 125 nM, 250 nM, 500 nM, and 1 μM. (FIG. 3B) Toxicity of aurein 1.2 and citropin 1.3 as determined by CellTiterGlo (Promega) assay. Protein fusions were delivered at 125 nM, 250 nM, 500 nM, and 1 μM. […] Cells were treated with 250 nM protein for 4 hours in serum-free media. Cells were washed and supplanted with full DMEM and incubated for 48 hours. Error bars represent the standard deviation of three independent biological replicates.
Next, the toxicity of each fusion protein was evaluated at a range of concentrations (125 nM to 1 μM) using an ATP-dependent cell viability assay at 48 h after treatment. […] Applying 1 μM treatments decreased cell viability to 70% and 66%, respectively (FIG. 3B). In light of its activity and low cytotoxicity at 250 nM, the ability of aurein 1.2 to enhance cytosolic protein delivery was characterized in depth.
as §2

Question: Which “potency of Cre delivery into cochlear hair cells when fused with aurein 1.2 versus absence of the peptide” value ([1]; live mice, inner ear) does the source give for GLFDIIKKIAESF [aurein 1.2] here?
Answer: Its value is greater than 20 fold.

Question: And the “effect on functional delivery of +36 GFP-Cre when added in trans” value (BSR.LNL.tdTomato cells [2])?
Answer: The value was “did not affect”.

Question: And the “level of recombination in primary screen” value (BSR.LNL.tdTomato cells [3])?
Answer: The value was “highest level of recombination”.

Question: What does the source list for “GLFDIIKKIAEAF [S12A, aurein 1.2 variant, expressed as recombinant fusion protein with +36 GFP-Cre]”?
Answer: toxicity versus aurein 1.2 (BSR.LNL.tdTomato cells [4]): increased toxicity; overall recombination efficiency versus aurein 1.2 (BSR.LNL.tdTomato cells [5]): potentially improved

Question: With “citropin 1.3-+36 GFP-Cre: fusion protein of citropin 1.3, +36 GFP and Cre recombinase, SEQ ID NO: 78” as the compound, how does the viability (BSR.LNL.tdTomato cells [6]; 250 nM recombinant fusion) read?
Answer: The viability was 84%.

Question: And the viable cells (BSR.LNL.tdTomato cells [6])?
Answer: Its viable cells is 66%.

Question: What about the “recombination signal above that of +36 GFP-Cre” value (BSR.LNL.tdTomato cells [5]; 250 nM expressed fusion protein) of the same compound?
Answer: The value was “did not induce any enhanced Cre delivery”.

Question: And the “recombination levels higher than that of +36 GFP-Cre alone” value (BSR.LNL.tdTomato cells [5]; 1 μM expressed fusion protein)?
Answer: Its value is 3.0 fold.

Question: With CCN(CC)CCCC(C)Nc1ccnc2cc(Cl)ccc12 (centres unmarked) [chloroquine, reference compound] as the compound, how does the recombined cells (BSR.LNL.tdTomato cells [3]; 250 nM +36 GFP-Cre incubated with 100 μM chloroquine (positive control)) read?
Answer: Its recombined cells is 48%.

Question: Which “toxicity versus aurein 1.2” value (BSR.LNL.tdTomato cells [4]) does the source give for “GLFDIIKRIAESF [K8R, aurein 1.2 variant, expressed as recombinant fusion protein with +36 GFP-Cre]” here?
Answer: The value was “increased toxicity”.

Question: What about the “overall recombination efficiency versus aurein 1.2” value (BSR.LNL.tdTomato cells [5]) of the same compound?
Answer: Its value is “potentially improved”.

Question: How did the “recombination in middle or base cochlear hair cells or cochlear supporting cells” value ([1]; 0.4 μL of 50 μM, 5 days) turn out when “+36 GFP-Cre: superpositively charged GFP fused to Cre recombinase, SEQ ID NO: 76; no-peptide control [reference compound]” was run?
Answer: Its value is “not in the middle or base of the cochlear hair cells or any cochlear supporting cells”.

Question: And the “Cre-mediated recombination, inner hair cells (IHC)” value ([1]; apex, 0.4 μL of 50 μM, 5 days)?
Answer: The value was 4.4%.

Question: And the “cells expressing tdTomato (recombined cells)” value (BSR.LNL.tdTomato cells [3]; 250 nM protein, 4 h serum-free media, then 48 h, sortase-conjugated peptide or no peptide)?
Answer: Its value is 4.5%.

Question: And the viable cells (BSR.LNL.tdTomato cells [6])?
Answer: Its viable cells is 85%.

Question: How did the “level of recombination in primary screen” value (BSR.LNL.tdTomato cells [3]) turn out when GLFDIIKKVASVIGGL [citropin 1.3] was run?
Answer: Its value is “moderate level of recombination”.
